Legend:
sperm nuclei = assay: DNA replication of sperm nuclei in Xenopus S-phase egg extract (32P-dCTP incorporation, TCA precipitation); assay type: biochemical; conditions: for replication rate of sperm chromatin: 300 μM TSA and 300 μM CTPB
Experimental: (§1) 5 μl samples were taken at different times and DNA replication was monitored by TCA precipitation of ^32PαdCTP incorporated into DNA.
Sperm chromatin was incubated in S-phase extract in the presence of 50 μg/ml ICRF193 at the beginning of the reaction or after 45 min (during the elongation phase). DNA replication was monitored by TCA precipitation of the replicated DNA.
(§2) Demembranated sperm nuclei were prepared and used as described in (Menut et al., 1999), and erythrocyte nuclei were purified from Xenopus blood as described. Nuclei were incubated in S-phase (1,000 nuclei/μl), or M-phase (CSF) extracts that were activated with 1 mM CaCl2. DNA synthesis was measured by ^32P-dCTP incorporation, as previously described (Menut et al., 1999).

erythrocyte nuclei = assay: DNA replication of erythrocyte nuclei in Xenopus egg extracts (32P-dCTP incorporation, TCA precipitation); assay type: biochemical; conditions: for replication rate of erythrocyte nuclei: permeabilized erythrocyte nuclei in S-phase extract, 300 μM TSA, 600 μM CTPB or 300 μM AA
Experimental: FIG. 1B: Permeabilized erythrocyte nuclei were incubated in S-phase or M-phase extract for 45 minutes before CaCl2 activation to trigger S phase. 5 μl samples were taken at different times. DNA replication was monitored by TCA precipitation of ^32PαdCTP incorporated into DNA and expressed as the percentage replicated DNA compared to the total input DNA. Sperm nuclei incubated in S-phase extract were used as a control.
as §1
FIG. 5A: Erythrocyte chromatin was incubated either in M-phase extract and immediately driven into S phase by Ca^++, or in M-phase extract for 45 min before induction into S phase by Ca^++ in the absence or presence of ICRF. Control sperm chromatin in M-phase extracts induced to enter S phase by calcium is shown. The amount of nuclei was 1000 nuclei/μl egg extract for sperm nuclei, and 500 nuclei/μl egg extract for erythrocyte nuclei to keep the chromatin concentration constant.
as §2

chromatin loop domains = assay: DNA loop size by maximum fluorescent halo technique (MFHT); assay type: biochemical, Xenopus
Experimental: FIG. 4D: Nuclei were recovered on coverslips and submitted to the maximum fluorescent halo technique (MFHT) for DNA loop size measurements (Material and Methods).
FIG. 7C: Sperm nuclei collected at different times during replication or following M-phase were recovered on coverslips and submitted to MFHT for DNA loop size measurements. Entry into mitosis was induced by incubating post-replicate embryo nuclei in M-phase extract in the presence or absence of ICRF.
Maximum Fluorescent Halo Radius (MFHR) were determined by treating non-fixed nuclei on coverslips. They were first dipped for 1 min in ice cold NP40 buffer (0.5% NP40, 10 mM MgCl2, 0.5 mM CaCl2, 50 mM Hepes pH 7.8) and then sequentially dipped for 30 s in a solution containing 0.2 mM MgCl2, 10 mM Tris (pH 7.4) with 0.5 M, 1 M, 1.5 M, 2 M NaCl. They were then incubated in 100 μg/ml ethidium bromide, 2 M NaCl and exposed for 1 min to short wave UV light before observation by fluorescence (Buongiorno-Nardelli et al., 1982). Halo and matrix diameters were estimated using a micrometrics slide. DNA loop size was calculated taking into account that the loop size is 2 fold the MFHR. The length of linear DNA was calculated using the correspondence of 1 μm to 2.3 kbp.

[1] = tested on: erythrocyte or sperm nuclei; assay: Chromosome condensation of nuclei in mitotic egg extract (Hoechst staining); assay type: biochemical, Xenopus; conditions: erythrocyte or sperm nuclei in M-phase extract; 50 μg/ml
Experimental: FIG. 5B: Demembranated erythrocyte nuclei or sperm nuclei were incubated in a mitotic egg extract in the presence or absence of 50 μg/ml of the topoisomerase II inhibitor ICRF193. DNA was stained with Hoechst dye for chromosome formation analysis.

ORC2 = ORC2 recruitment to chromatin (chromatin purification, anti ORC2 immunoblot); assay type: biochemical, Xenopus
Experimental: FIG. 5C: Chromatin was purified and proteins analyzed by SDS gel electrophoresis as described in Material and Methods. Erythrocyte nuclei (500 nuclei/μl egg extract) or sperm nuclei (1000 nuclei/μl egg extract) were incubated in a mitotic egg extract, induced to enter S phase with calcium, in the presence (+) or absence (−) of ICRF 193. Chromatin was purified 30 min after calcium activation and analyzed by immunoblot with a Xenopus anti ORC2 antibody.
50 μl samples were diluted with 5 volumes of extract buffer (XB: 100 mM KCl, 0.1 mM CaCl2, 1 mM MgCl2, 10 mM KOH-Hepes pH 7.7, 50 mM sucrose) and pelleted by centrifugation at 7500 g for 12 min through a 0.7 M sucrose cushion. Nuclear pellets were resuspended in XB, 0.3% Triton X-100 and incubated for 5 min on ice. After a further 5,000 g centrifugation for 5 min, chromatin pellets were recovered and adjusted in Laemmli Buffer.

[2] = sperm nuclei in S-phase extract
[3] = inhibitor present during mitotic remodeling in M-phase extract, chromatin purified 30 min after calcium activation

Q: What does the source list for `CCCCCCCCCCCCCCCc1cccc(OCC)c1C(=O)Nc1ccc(Cl)c(C(F)(F)F)c1` [CTPB]?
A: reversal of AA inhibition of sperm nuclei replication (sperm nuclei; S-phase extract, prior incubation of 600 μM CTPB, 300 μM AA): reversed; replication rate of sperm chromatin (sperm nuclei; [2]): no significant effect; replication rate of erythrocyte nuclei (erythrocyte nuclei): failed to significantly affect

Q: Which “replication rate of sperm chromatin” value (sperm nuclei; [2]) does the source give for `CC(/C=C/C(=O)NO)=C\[C@@H](C)C(=O)c1ccc(N(C)C)cc1` [TSA, trichostatin] here?
A: no significant effect

Q: What about the “replication rate of erythrocyte nuclei” value (erythrocyte nuclei) of the same molecule?
A: failed to significantly affect

Q: What does the source list for ICRF 193?
A: mitotic remodeling (loop size reduction) of post-replicative nuclei (chromatin loop domains; post-replicative embryonic nuclei in M-phase extract): blocked; S-phase dependent increase in loop size (chromatin loop domains; sperm nuclei during replication in S phase, data not shown): prevented; DNA replication of sperm chromatin (sperm nuclei; S-phase extract, 50 μg/ml at the beginning of the reaction or after 45 min): does not interfere with DNA replication; chromosome condensation [1]: prevented chromosome condensation; rate of replication of erythrocyte nuclei (erythrocyte nuclei; 45 min in M-Phase extract containing ICRF 193 before S phase induction): very low rate of replication; ORC recruitment (ORC2; inhibition of loop size remodeling, post-replicative embryonic nuclei and erythrocyte nuclei): decreases; recruitment of ORC2 onto erythrocyte chromatin for the subsequent S-phase (ORC2; [3]): dramatically reduced; recruitment of ORC2 onto sperm chromatin for the subsequent S-phase (ORC2; [3]): not

Q: What does the source list for `CCCCCCCCCCCCCCCc1cccc(O)c1C(=O)O` [AA, anacardic acid]?
A: replication of sperm nuclei (sperm nuclei; sperm nuclei in S-phase extract, 300 μM AA): strongly inhibited; sensitivity of replication of erythrocyte nuclei remodeled in mitosis (erythrocyte nuclei; 45 min in M-phase extract, then S-phase extract containing 300 μM AA): as sensitive as sperm nuclei; replication rate of erythrocyte nuclei (erythrocyte nuclei): did not further inhibit

Reference: patent US8993330B2, “Composition for a mitotic remodeling of chromosomes” (Centre National de la Recherche Scientifique, priority 2005, dated 2015)
